ChEMBL document CHEMBL1131486, “Synthesis and pharmacological evaluation of ring-methylated derivatives of 3,4-(methylenedioxy)amphetamine (MDA)” (J Med Chem, 1998)
Calls of active or inactive are those of the source. The rule behind the calls is not given here.

Tests used:
[1] = selectivity is the ratio between IC50 values of 5-HTand DA
[2] = species: Rattus norvegicus; experiment: Compound was tested for its ability to inhibit [3H]dopamine uptake in rat synaptosomes; format: functional; conditions: Brain
[3] = molecular target: Sodium-dependent serotonin transporter (Rattus norvegicus, UniProt P31652); experiment: Activity towards Serotonin transporter was determined by the ability to inhibit [3H]5-HT uptake in rat synaptosomes; format: subcellular, Brain
Sequence of Sodium-dependent serotonin transporter (P31652 whole entry): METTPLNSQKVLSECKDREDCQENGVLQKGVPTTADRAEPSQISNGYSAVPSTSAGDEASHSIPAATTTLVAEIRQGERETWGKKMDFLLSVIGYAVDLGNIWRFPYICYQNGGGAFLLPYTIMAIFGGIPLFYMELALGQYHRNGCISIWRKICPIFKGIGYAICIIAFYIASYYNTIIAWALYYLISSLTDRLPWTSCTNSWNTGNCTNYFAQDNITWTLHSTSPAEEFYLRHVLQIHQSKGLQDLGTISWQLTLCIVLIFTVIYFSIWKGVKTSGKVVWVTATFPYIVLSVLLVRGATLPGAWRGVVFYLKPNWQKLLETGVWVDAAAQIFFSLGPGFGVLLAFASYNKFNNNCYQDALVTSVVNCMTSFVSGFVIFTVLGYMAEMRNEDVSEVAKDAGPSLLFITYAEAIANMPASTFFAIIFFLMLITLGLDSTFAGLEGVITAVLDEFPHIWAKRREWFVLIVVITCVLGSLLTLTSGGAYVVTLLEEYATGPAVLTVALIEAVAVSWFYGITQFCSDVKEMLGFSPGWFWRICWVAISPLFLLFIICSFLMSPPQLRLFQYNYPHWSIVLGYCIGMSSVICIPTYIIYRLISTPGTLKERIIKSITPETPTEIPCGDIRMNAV

[4] = molecular target: T1, Norepinephrine transporter (Rattus norvegicus, UniProt Q9WTR4); experiment: (§1) Compound was tested for the ability to inhibit [3H]norepinephrine binding to Norepinephrine transporter in rat synaptosomes; format: subcellular, Brain
T1 sequence (Q9WTR4 whole entry): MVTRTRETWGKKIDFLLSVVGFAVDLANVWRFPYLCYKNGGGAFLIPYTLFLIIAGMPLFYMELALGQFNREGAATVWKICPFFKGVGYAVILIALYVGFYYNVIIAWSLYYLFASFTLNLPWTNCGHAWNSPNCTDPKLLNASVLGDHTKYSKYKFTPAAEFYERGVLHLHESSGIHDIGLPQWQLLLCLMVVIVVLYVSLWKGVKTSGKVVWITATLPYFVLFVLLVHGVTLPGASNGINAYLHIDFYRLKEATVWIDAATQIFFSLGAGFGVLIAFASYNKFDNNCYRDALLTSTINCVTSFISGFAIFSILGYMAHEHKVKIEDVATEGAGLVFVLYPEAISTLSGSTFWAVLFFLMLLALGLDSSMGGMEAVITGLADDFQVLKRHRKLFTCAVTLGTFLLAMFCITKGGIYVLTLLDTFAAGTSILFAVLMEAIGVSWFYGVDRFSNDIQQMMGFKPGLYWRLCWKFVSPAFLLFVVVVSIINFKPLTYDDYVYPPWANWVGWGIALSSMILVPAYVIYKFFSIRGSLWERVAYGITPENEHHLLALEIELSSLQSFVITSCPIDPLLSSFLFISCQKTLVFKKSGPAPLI

[5] = species: Rattus norvegicus; experiment: Effective dose for drug discrimination assay in rats using (+)-amphetamine as training drug; format: functional
[6] = species: Rattus norvegicus; experiment: Effective dose for drug discrimination assay in rats using (+)-Amphitamine as training drug; NS = No substitution; format: functional, organism-based
[7] = species: Rattus norvegicus; experiment: Effective dose for drug discrimination assay in rats using (+)-MBDB as training drug; format: functional
[8] = species: Rattus norvegicus; experiment: Effective dose for drug discrimination assay in rats using LSD as training drug.; format: functional
[9] = species: Rattus norvegicus; experiment: Effective dose for drug discrimination assay in rats using MMAI as training drug.; format: functional
[10] = species: Rattus norvegicus; experiment: Effective dose for drug discrimination assay in rats using DOIas training drug.; format: functional
[11] = species: Rattus norvegicus; experiment: Effective dose for drug discrimination assay in rats using LSD as training drug; format: functional
[12] = species: Rattus norvegicus; experiment: Effective dose for drug discrimination assay in rats using (+)-MBDB as training drug.; format: functional
[13] = species: Rattus norvegicus; experiment: Effective dose for drug discrimination assay in rats using DOI as training drug.; format: functional
[14] = molecular target: T1, Norepinephrine transporter; experiment: as §1; format: functional, subcellular, Brain

For `CSc1ccc(CC(C)N)cc1` (stereo not drawn) [4-METHYLTHIOAMPHETAMINE], the Selectivity [1] was 42, the IC50 [2] was 3070 nM and the IC50 [3] was 74 nM. It also gave an IC50 [4] of 2380 nM.

`C[C@H](N)Cc1ccccc1` [DEXTROAMPHETAMINE] gave an ED50 [5] of 1.06 µmol/kg.

For `Cc1cc2c(cc1CC(C)N)OCO2` (stereo not drawn), the Selectivity [1] was 36, the IC50 [2] was 28300 nM and the ED50 [6] was “inactive”. For the same compound, the ED50 [7] was 17.4 µmol/kg, the IC50 [3] was 783 nM and the IC50 [4] was 4600 nM. For the same compound, the ED50 [8] was 17.4 µmol/kg, the ED50 [9] was 7.65 µmol/kg and the ED50 [10] was 8.72 µmol/kg.

`CCN(CC)C(=O)[C@@H]1C=C2c3cccc4[nH]cc(c34)C[C@H]2N(C)C1` [LYSERGIDE] gave an ED50 [11] of 0.04 µmol/kg.

For `Cc1cc(CC(C)N)cc2c1OCO2` (stereo not drawn), the Selectivity [1] was 108, the IC50 [2] was 11600 nM and the ED50 [6] was “inactive”. It also gave an ED50 [12] of 2 µmol/kg, an IC50 [3] of 107 nM and an IC50 [4] of 1490 nM. The ED50 [8] was 8.72 µmol/kg, the ED50 [9] was 1.53 µmol/kg and the ED50 [10] was 2.11 µmol/kg.

For `CC(N)Cc1ccc2c(c1)CCC2` (stereo not drawn), the Selectivity [1] was 23, the IC50 [3] was 82 nM and the IC50 [4] was 849 nM.

With `CC(N)Cc1ccc2c(c1)OCO2` (stereo not drawn) [TENAMFETAMINE] the Selectivity [1] was 2, the IC50 [2] was 890 nM and the ED50 [6] was “inactive”. The ED50 [12] was 2.07 µmol/kg, the IC50 [3] was 478 nM and the IC50 [4] was 266 nM.

`COc1cc2c(cc1C)CC(N)C2` (stereo not drawn) gave an ED50 [9] of 1.83 µmol/kg.

With `CC(N)Cc1ccc(I)cc1` (stereo not drawn) [p-IODOAMPHETAMINE] the Selectivity [1] was 7, the IC50 [2] was 589 nM and the IC50 [3] was 82 nM. The IC50 [4] was 993 nM.

For `COc1cc(CC(C)N)c(OC)cc1I` (stereo not drawn), the ED50 [13] was 0.3 µmol/kg.

`Cc1c(CC(C)N)ccc2c1OCO2` (stereo not drawn) showed an IC50 [14] of 1940 nM, a Selectivity [1] of 129 and an IC50 [2] of 12000 nM. The ED50 [6] was “inactive”, the ED50 [12] was 1.83 µmol/kg and the IC50 [3] was 93 nM. For the same compound, the ED50 [8] was 4.1 µmol/kg, the ED50 [9] was 1.71 µmol/kg and the ED50 [10] was 1.7 µmol/kg.
